# Experimental data as given in US6355799B1, “Substituted benzene compounds, process for their preparation, and herbicidal and defoliant compositions containing them” (ISK Americas Incorporated, priority 1997, dated 2002).
# Key:
# Format in all cases: in vivo
# [1] = test system: field corn (Zea mays L., var. Dekalb 535, CORN); test: Pre-emerge test, crop safety; conditions: pre-emerge; for phytotoxicity rating CORN (crop damage): 14 days after application, scale 0-100; for Pre-emerge Herbicidal Activity CORN: crop damage, phytotoxicity rating 0-100 at 14 days after application
# Outline: (§1)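 Visual ratings on a 0-100 scale (0 no damage, 100 all plants dead) were taken at 14 days after treatment. Rates of 15-1000 g ai/ha in acetone, 187 l/ha, were sprayed onto soil one day after planting (pre-emerge) or onto 2-3 leaf plants with 0.25% v/v surfactant (post-emerge).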
# [2] = test system: upland rice (Oryza sp., var. Tebonnet, RICE); test: Pre-emerge test, crop safety; conditions: pre-emerge; for phytotoxicity rating RICE (crop damage): 14 days after application, scale 0-100; for Pre-emerge Herbicidal Activity RICE: crop damage, phytotoxicity rating 0-100 at 14 days after application
# Outline: as §1
# [3] = test system: field corn (Zea mays L., var. Dekalb 535, CORN); test: Post-emerge test, crop safety; conditions: post-emerge; for CORN phytotoxicity rating (crop damage): 14 days after application, rating scale 0-100; for Post-emerge Herbicidal Activity CORN: crop damage rating 0-100 at 14 days after application
# Outline: (§2)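 Sandy loam pots; pre-emerge: sown 1 d pre-spray, surface-watered after, then bottom-watered. Post-emerge: sown 8–21 d before, 2–3 leaf stage, + 0.25% v/v NIS, bottom-watered. Acetone, 187 l/ha track spray, 15–1000 g ai/ha. 0–100 injury score, day 14.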
# [4] = test system: upland rice (Oryza sp., var. Tebonnet, RICE); test: Post-emerge test, crop safety; conditions: post-emerge; for RICE phytotoxicity rating (crop damage): 14 days after application, rating scale 0-100; for Post-emerge Herbicidal Activity RICE: crop damage rating 0-100 at 14 days after application
# Outline: as §2
# [5] = test system: large crabgrass (Digitaria sanguinalis, DIGSA); test: Post-emerge test, greenhouse herbicide activity screening; conditions: post-emerge; for DIGSA phytotoxicity rating: 14 days after application, rating scale 0-100; for Post-emerge Herbicidal Activity DIGSA: phytotoxicity rating 0-100 at 14 days after application
# Outline: (§3)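 Herbicidal damage is scored 0 (none) to 100 (complete plant death) two weeks after a simulated field spray. Rates span 15–1000 g ai/ha, delivered in acetone at 187 l/ha. For post-emergence treatments, plants have 2–3 leaves and the spray carries 0.25% v/v non-ionic surfactant.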
# [6] = test system: lambsquarters (Chenopodium album, CHEAL); test: as above; conditions: post-emerge; for CHEAL phytotoxicity rating: 14 days after application, rating scale 0-100; for Post-emerge Herbicidal Activity CHEAL: phytotoxicity rating 0-100 at 14 days after application
# Outline: as §3
# [7] = test system: velvetleaf (Abutilon theophrasti, ABUTH); test: as above; conditions: post-emerge; for ABUTH phytotoxicity rating: 14 days after application, rating scale 0-100; for Post-emerge Herbicidal Activity ABUTH: phytotoxicity rating 0-100 at 14 days after application
# Outline: as §3
# [8] = test system: green foxtail (Setaria viridis, SETVI); test: as above; conditions: post-emerge; for SETVI phytotoxicity rating: 14 days after application, rating scale 0-100; for Post-emerge Herbicidal Activity SETVI: phytotoxicity rating 0-100 at 14 days after application
# Outline: as §3
# [9] = test system: ivyleaf morningglory (Ipomoea hederacea, IPOHE); test: as above; conditions: post-emerge; for IPOHE phytotoxicity rating: 14 days after application, rating scale 0-100; for Post-emerge Herbicidal Activity IPOHE: phytotoxicity rating 0-100 at 14 days after application
# Outline: as §3
# [10] = test system: redroot pigweed (Amaranthus retroflexus, AMARE); test: as above; conditions: post-emerge; for AMARE phytotoxicity rating: 14 days after application, rating scale 0-100; for Post-emerge Herbicidal Activity AMARE: phytotoxicity rating 0-100 at 14 days after application
# Outline: as §3
# [11] = test system: johnsongrass (Sorghum halepense, SORHA); test: as above; conditions: post-emerge; for SORHA phytotoxicity rating: 14 days after application, rating scale 0-100; for Post-emerge Herbicidal Activity SORHA: phytotoxicity rating 0-100 at 14 days after application
# Outline: as §3
# [12] = test system: barnyardgrass (Echinochloa crus-galli, ECHCG); test: as above; conditions: post-emerge; for ECHCG phytotoxicity rating: 14 days after application, rating scale 0-100; for Post-emerge Herbicidal Activity ECHCG: phytotoxicity rating 0-100 at 14 days after application
# Outline: as §3
# [13] = test system: sicklepod (Cassia obtusifolia, CASOB); test: as above; conditions: post-emerge; for CASOB phytotoxicity rating: 14 days after application, rating scale 0-100; for Post-emerge Herbicidal Activity CASOB: phytotoxicity rating 0-100 at 14 days after application
# Outline: as §3
# [14] = test system: large crabgrass (Digitaria sanguinalis, DIGSA); test: Pre-emerge test, greenhouse herbicide activity screening; conditions: pre-emerge; for phytotoxicity rating DIGSA: 14 days after application, scale 0-100; for Pre-emerge Herbicidal Activity DIGSA: phytotoxicity rating 0-100 at 14 days after application
# Outline: as §2
# [15] = test system: lambsquarters (Chenopodium album, CHEAL); test: as above; conditions: pre-emerge; for phytotoxicity rating CHEAL: 14 days after application, scale 0-100; for Pre-emerge Herbicidal Activity CHEAL: phytotoxicity rating 0-100 at 14 days after application
# Outline: as §2
# [16] = test system: velvetleaf (Abutilon theophrasti, ABUTH); test: as above; conditions: pre-emerge; for phytotoxicity rating ABUTH: 14 days after application, scale 0-100; for Pre-emerge Herbicidal Activity ABUTH: phytotoxicity rating 0-100 at 14 days after application
# Outline: as §2
# [17] = test system: green foxtail (Setaria viridis, SETVI); test: as above; conditions: pre-emerge; for phytotoxicity rating SETVI: 14 days after application, scale 0-100; for Pre-emerge Herbicidal Activity SETVI: phytotoxicity rating 0-100 at 14 days after application
# Outline: as §2
# [18] = test system: ivyleaf morningglory (Ipomoea hederacea, IPOHE); test: as above; conditions: pre-emerge; for phytotoxicity rating IPOHE: 14 days after application, scale 0-100; for Pre-emerge Herbicidal Activity IPOHE: phytotoxicity rating 0-100 at 14 days after application
# Outline: as §2
# [19] = test system: johnsongrass (Sorghum halepense, SORHA); test: as above; conditions: pre-emerge; for phytotoxicity rating SORHA: 14 days after application, scale 0-100; for Pre-emerge Herbicidal Activity SORHA: phytotoxicity rating 0-100 at 14 days after application
# Outline: as §2
# [20] = test system: barnyardgrass (Echinochloa crus-galli, ECHCG); test: as above; conditions: pre-emerge; for phytotoxicity rating ECHCG: 14 days after application, scale 0-100; for Pre-emerge Herbicidal Activity ECHCG: phytotoxicity rating 0-100 at 14 days after application
# Outline: as §2
# [21] = test system: sicklepod (Cassia obtusifolia, CASOB); test: as above; conditions: pre-emerge; for phytotoxicity rating CASOB: 14 days after application, scale 0-100; for Pre-emerge Herbicidal Activity CASOB: phytotoxicity rating 0-100 at 14 days after application
# Outline: as §2
# [22] = test system: redroot pigweed (Amaranthus retroflexus, AMARE); test: as above; conditions: pre-emerge; for phytotoxicity rating AMARE: 14 days after application, scale 0-100; for Pre-emerge Herbicidal Activity AMARE: phytotoxicity rating 0-100 at 14 days after application
# Outline: as §2
structure (smiles),measurement,setting,value
COc1c(Cl)cc(F)c(-n2c(=O)cc(C(F)(F)F)n(C)c2=O)c1NC(=O)c1ccc2ccccc2c1OC [2-153],phytotoxicity rating CORN (crop damage),[1]; 63 g ai/ha,0
same,phytotoxicity rating CORN (crop damage),[1]; 250 g ai/ha,0
same,phytotoxicity rating RICE (crop damage),[2]; 63 g ai/ha,0
same,phytotoxicity rating RICE (crop damage),[2]; 250 g ai/ha,20
same,CORN phytotoxicity rating (crop damage),[3]; 63 g ai/ha,5
same,CORN phytotoxicity rating (crop damage),[3]; 250 g ai/ha,5
same,RICE phytotoxicity rating (crop damage),[4]; 63 g ai/ha,0
same,RICE phytotoxicity rating (crop damage),[4]; 250 g ai/ha,10
same,DIGSA phytotoxicity rating,[5]; 63 g ai/ha,0
same,DIGSA phytotoxicity rating,[5]; 250 g ai/ha,10
same,CHEAL phytotoxicity rating,[6]; 63 g ai/ha,80
same,CHEAL phytotoxicity rating,[6]; 250 g ai/ha,95
same,ABUTH phytotoxicity rating,[7]; 63 g ai/ha,95
same,ABUTH phytotoxicity rating,[7]; 250 g ai/ha,100
same,SETVI phytotoxicity rating,[8]; 63 g ai/ha,20
same,SETVI phytotoxicity rating,[8]; 250 g ai/ha,30
same,IPOHE phytotoxicity rating,[9]; 63 g ai/ha,100
same,IPOHE phytotoxicity rating,[9]; 250 g ai/ha,95
same,AMARE phytotoxicity rating,[10]; 63 g ai/ha,60
same,AMARE phytotoxicity rating,[10]; 250 g ai/ha,90
same,SORHA phytotoxicity rating,[11]; 63 g ai/ha,0
same,SORHA phytotoxicity rating,[11]; 250 g ai/ha,20
same,ECHCG phytotoxicity rating,[12]; 63 g ai/ha,10
same,ECHCG phytotoxicity rating,[12]; 250 g ai/ha,20
same,CASOB phytotoxicity rating,[13]; 63 g ai/ha,0
same,CASOB phytotoxicity rating,[13]; 250 g ai/ha,30
same,phytotoxicity rating DIGSA,[14]; 63 g ai/ha,0
same,phytotoxicity rating DIGSA,[14]; 250 g ai/ha,40
same,phytotoxicity rating CHEAL,[15]; 63 g ai/ha,70
same,phytotoxicity rating CHEAL,[15]; 250 g ai/ha,90
same,phytotoxicity rating ABUTH,[16]; 63 g ai/ha,20
same,phytotoxicity rating ABUTH,[16]; 250 g ai/ha,50
same,phytotoxicity rating SETVI,[17]; 63 g ai/ha,30
same,phytotoxicity rating SETVI,[17]; 250 g ai/ha,90
same,phytotoxicity rating IPOHE,[18]; 63 g ai/ha,0
same,phytotoxicity rating IPOHE,[18]; 250 g ai/ha,0
same,phytotoxicity rating SORHA,[19]; 63 g ai/ha,10
same,phytotoxicity rating SORHA,[19]; 250 g ai/ha,0
same,phytotoxicity rating ECHCG,[20]; 63 g ai/ha,0
same,phytotoxicity rating ECHCG,[20]; 250 g ai/ha,0
same,phytotoxicity rating CASOB,[21]; 63 g ai/ha,0
same,phytotoxicity rating CASOB,[21]; 250 g ai/ha,0
same,phytotoxicity rating AMARE,[22]; 63 g ai/ha,100
same,phytotoxicity rating AMARE,[22]; 250 g ai/ha,100
COc1c(Cl)cc(F)c(-n2c(=O)n3n(c2=O)CCCC3)c1NC(=O)c1ccc(F)cc1F [9-16],Pre-emerge Herbicidal Activity CORN,[1]; rate 63 g ai/ha,0
same,Pre-emerge Herbicidal Activity CORN,[1]; rate 250 g ai/ha,90
same,Pre-emerge Herbicidal Activity RICE,[2]; rate 63 g ai/ha,80
same,Pre-emerge Herbicidal Activity RICE,[2]; rate 250 g ai/ha,90
same,Post-emerge Herbicidal Activity CORN,[3]; 63 g ai/ha,5
same,Post-emerge Herbicidal Activity CORN,[3]; 250 g ai/ha,65
same,Post-emerge Herbicidal Activity RICE,[4]; 63 g ai/ha,30
same,Post-emerge Herbicidal Activity RICE,[4]; 250 g ai/ha,70
same,Post-emerge Herbicidal Activity DIGSA,[5]; 63 g ai/ha,10
same,Post-emerge Herbicidal Activity DIGSA,[5]; 250 g ai/ha,0
same,Post-emerge Herbicidal Activity CHEAL,[6]; 63 g ai/ha,65
same,Post-emerge Herbicidal Activity CHEAL,[6]; 250 g ai/ha,80
same,Post-emerge Herbicidal Activity ABUTH,[7]; 63 g ai/ha,100
same,Post-emerge Herbicidal Activity ABUTH,[7]; 250 g ai/ha,100
same,Post-emerge Herbicidal Activity SETVI,[8]; 63 g ai/ha,0
same,Post-emerge Herbicidal Activity SETVI,[8]; 250 g ai/ha,20
same,Post-emerge Herbicidal Activity IPOHE,[9]; 63 g ai/ha,90
same,Post-emerge Herbicidal Activity IPOHE,[9]; 250 g ai/ha,100
same,Post-emerge Herbicidal Activity AMARE,[10]; 63 g ai/ha,30
same,Post-emerge Herbicidal Activity AMARE,[10]; 250 g ai/ha,75
same,Post-emerge Herbicidal Activity SORHA,[11]; 63 g ai/ha,0
same,Post-emerge Herbicidal Activity SORHA,[11]; 250 g ai/ha,0
same,Post-emerge Herbicidal Activity ECHCG,[12]; 63 g ai/ha,0
same,Post-emerge Herbicidal Activity ECHCG,[12]; 250 g ai/ha,10
same,Post-emerge Herbicidal Activity CASOB,[13]; 63 g ai/ha,50
same,Post-emerge Herbicidal Activity CASOB,[13]; 250 g ai/ha,85
same,Pre-emerge Herbicidal Activity DIGSA,[14]; rate 63 g ai/ha,10
same,Pre-emerge Herbicidal Activity DIGSA,[14]; rate 250 g ai/ha,40
same,Pre-emerge Herbicidal Activity CHEAL,[15]; rate 63 g ai/ha,100
same,Pre-emerge Herbicidal Activity CHEAL,[15]; rate 250 g ai/ha,100
same,Pre-emerge Herbicidal Activity ABUTH,[16]; rate 63 g ai/ha,100
same,Pre-emerge Herbicidal Activity ABUTH,[16]; rate 250 g ai/ha,100
same,Pre-emerge Herbicidal Activity SETVI,[17]; rate 63 g ai/ha,39
same,Pre-emerge Herbicidal Activity SETVI,[17]; rate 250 g ai/ha,70
same,Pre-emerge Herbicidal Activity IPOHE,[18]; rate 63 g ai/ha,70
same,Pre-emerge Herbicidal Activity IPOHE,[18]; rate 250 g ai/ha,70
same,Pre-emerge Herbicidal Activity SORHA,[19]; rate 63 g ai/ha,10
same,Pre-emerge Herbicidal Activity SORHA,[19]; rate 250 g ai/ha,40
same,Pre-emerge Herbicidal Activity ECHCG,[20]; rate 63 g ai/ha,0
same,Pre-emerge Herbicidal Activity ECHCG,[20]; rate 250 g ai/ha,40
same,Pre-emerge Herbicidal Activity CASOB,[21]; rate 63 g ai/ha,20
same,Pre-emerge Herbicidal Activity CASOB,[21]; rate 250 g ai/ha,60
same,Pre-emerge Herbicidal Activity AMARE,[22]; rate 63 g ai/ha,70
same,Pre-emerge Herbicidal Activity AMARE,[22]; rate 250 g ai/ha,100
